Measured values as given in article PMC3700763, “First human dose-escalation study with remogliflozin etabonate, a selective inhibitor of the sodium-glucose transporter 2 (SGLT2), in healthy subjects and in subjects with type 2 diabetes mellitus” (BMC Pharmacology & Toxicology, 2013).
Marks after values point to notes of the source that are not given here.

Assays:
[1] = Plasma pharmacokinetics, healthy subjects; assay type: in vivo, human; settings: for Tmax / half-life / AUC(0-inf) / Cmax: human; for AUC(0-inf): read-out: AUC(0-∞) Geometric mean (CV%); for Cmax: read-out: Cmax Geometric mean (CV%); for AUC ratio (remogliflozin/remogliflozin etabonate) Geometric mean: molecular weight corrected
Description: Ten healthy subjects were evaluated in 5 study sessions, each separated by approximately 2 weeks. At each study session, subjects received either an oral dose of remogliflozin etabonate or placebo after an overnight fast. Remogliflozin etabonate doses were 20 mg, 50 mg, 150 mg, 500 mg and 1000 mg. Over the course of participation in the study, each subject received 4 of the 5 active remogliflozin etabonate doses and 1 dose of placebo (4:1 active to placebo ratio per treatment period). The available safety and PK results from each dosing period were evaluated before proceeding to the next dose level. On each dosing day, a series of 2.0 mL blood samples were collected at pre-dose and 10, 20, 30 and 45 min, and 1, 1.25, 1.5, 2, 2.5, 3, 4, 6, 8, 12, 16, and 24 h post-dose for the determination of remogliflozin etabonate, remogliflozin and GSK279782 in plasma by using high-performance liquid chromatography with tandem mass spectrometry (MS/MS) as described. Non-compartmental PK analysis of plasma concentration–time data was performed using WinNonlin Version 4.1 (Pharsight Corporation, Mountainview, CA, USA). The Cmax and Tmax were obtained directly from the data. Areas under the plasma concentration–time curves from time zero to the last quantifiable time point (AUC[0–last]) and extrapolated to infinity (AUC[0–∞]) were calculated using the log-linear trapezoidal method. The terminal plasma elimination rate-constant (λz) was estimated from log-linear regression analysis of the terminal phase of the plasma concentration–time curve, and the T½ was calculated as T½ = ln2/λz. Ratios of AUC(0–∞) remogliflozin to AUC(0–last) remogliflozin etabonate were calculated including molecular weight corrections. Safety and pharmacodynamic data were summarized using descriptive statistics. This was a small exploratory study and no formal hypothesis-testing was conducted. Dose proportionality with respect to Cmax, and AUC was assessed using the power model y = α dose^β, where y = Cmax or AUC, and α denotes a random subject effect. The exponent β in the power model will be estimated by regressing the loge-transformed PK parameters on loge dose, i.e. ln(PK parameter) = ln(α) + β * ln(dose). Dose proportionality implied that β = 1 and was assessed by estimating β and its corresponding 90% confidence interval. The power model was fitted by restricted maximum likelihood using SAS Proc Mixed.

[2] = Plasma pharmacokinetics, T2DM subjects; assay type: in vivo, human; settings: for AUC(0-inf) / Cmax / Tmax / half-life: human, plasma analyte; for AUC(0-inf): read-out: AUC(0–∞) Geometric mean (CV%); for Cmax: read-out: Cmax Geometric mean (CV%); for Tmax: read-out: Tmax Median; for half-life: read-out: T½ Geometric mean (CV%) (converted)
Description: Six subjects with T2DM received two doses of remogliflozin etabonate and a placebo dose, in a randomized, dose escalating, crossover design, along with an oral glucose load on three study sessions separated by 7–14 days. Full PK and safety profiles were measured on Day 1 of each dosing period. The doses selected for this portion of the study, 50 mg and 500 mg, were based on data obtained in Part A. In each dosing period, subjects were assigned to active vs placebo in a 2:1 ratio. On each dosing day, a series of 2.0 mL blood samples were collected at pre-dose and 10, 20, 30 and 45 min, and 1, 1.25, 1.5, 2, 2.5, 3, 4, 6, 8, 12, 16, and 24 h post-dose for the determination of remogliflozin etabonate, remogliflozin and GSK279782 in plasma by using high-performance liquid chromatography with tandem mass spectrometry (MS/MS) as described. Non-compartmental PK analysis of plasma concentration–time data was performed using WinNonlin Version 4.1 (Pharsight Corporation, Mountainview, CA, USA). The Cmax and Tmax were obtained directly from the data. Areas under the plasma concentration–time curves from time zero to the last quantifiable time point (AUC[0–last]) and extrapolated to infinity (AUC[0–∞]) were calculated using the log-linear trapezoidal method. The terminal plasma elimination rate-constant (λz) was estimated from log-linear regression analysis of the terminal phase of the plasma concentration–time curve, and the T½ was calculated as T½ = ln2/λz. Ratios of AUC(0–∞) remogliflozin to AUC(0–last) remogliflozin etabonate were calculated including molecular weight corrections.

[3] = tested on: SGLT-2; parameters: method as in PMID 22851617; settings: relative to remogliflozin; cited from earlier work
[4] = tested on: SGLT2 over SGLT1; parameters: method as in PMID 12139397; settings: cited from earlier work
[5] = plasma, po, 20 mg, plasma analyte, healthy subjects, remogliflozin etabonate 20 mg oral dose, read-out: T½ Geometric mean (CV%) (converted)
[6] = plasma, po, 50 mg, plasma analyte, healthy subjects, remogliflozin etabonate 50 mg oral dose, read-out: T½ Geometric mean (CV%) (converted)
[7] = plasma, po, 150 mg, plasma analyte, healthy subjects, remogliflozin etabonate 150 mg oral dose, read-out: T½ Geometric mean (CV%) (converted)
[8] = plasma, po, 500 mg, plasma analyte, healthy subjects, remogliflozin etabonate 500 mg oral dose, read-out: T½ Geometric mean (CV%) (converted)
[9] = plasma, po, 1000 mg, plasma analyte, healthy subjects, remogliflozin etabonate 1000 mg oral dose, read-out: T½ Geometric mean (CV%) (converted)
[10] = plasma analyte, healthy subjects, remogliflozin etabonate 20 mg oral dose
[11] = plasma analyte, healthy subjects, remogliflozin etabonate 20 mg oral dose, read-out: Tmax Median
[12] = plasma analyte, healthy subjects, remogliflozin etabonate 50 mg oral dose
[13] = plasma analyte, healthy subjects, remogliflozin etabonate 50 mg oral dose, read-out: Tmax Median
[14] = plasma analyte, healthy subjects, remogliflozin etabonate 150 mg oral dose
[15] = plasma analyte, healthy subjects, remogliflozin etabonate 150 mg oral dose, read-out: Tmax Median
[16] = plasma analyte, healthy subjects, remogliflozin etabonate 500 mg oral dose
[17] = plasma analyte, healthy subjects, remogliflozin etabonate 500 mg oral dose, read-out: Tmax Median
[18] = plasma analyte, healthy subjects, remogliflozin etabonate 1000 mg oral dose
[19] = plasma analyte, healthy subjects, remogliflozin etabonate 1000 mg oral dose, read-out: Tmax Median
[20] = remogliflozin etabonate 50 mg oral dose
[21] = remogliflozin etabonate 500 mg oral dose (prodrug n = 2)
[22] = remogliflozin etabonate 500 mg oral dose

Row | Compound | half-life [1, 5] | half-life [1, 6] | half-life [1, 7] | half-life [1, 8] | half-life [1, 9] | AUC(0-inf) [1, 10] | Cmax [1, 10] | Tmax [1, 11] | AUC(0-inf) [1, 12] | Cmax [1, 12] | Tmax [1, 13] | AUC(0-inf) [1, 14] | Cmax [1, 14] | Tmax [1, 15] | AUC(0-inf) [1, 16] | Cmax [1, 16] | Tmax [1, 17] | AUC(0-inf) [1, 18] | Cmax [1, 18] | Tmax [1, 19] | other results
1 | Cc1[nH]nc(O[C@@H]2O[C@H](CO)[C@@H](O)[C@H](O)[C@H]2O)c1Cc1ccc(OC(C)C)cc1 [GSK279782] | 1.54 h | 2.19 h | 2.28 h | 3.07 h | 3.5 h | 51.8 ng·h/mL | 17.5 ng/mL | 1.26 h | 145 ng·h/mL | 50.2 ng/mL | 1.38 h | 447 ng·h/mL | 155 ng/mL | 1 h | 1520 ng·h/mL | 498 ng/mL | 1.5 h | 4000 ng·h/mL | 1290 ng/mL | 1.25 h | Tmax ([1]; plasma, oral, healthy subjects, 20-1000 mg, read-out: median Tmax estimates, range across doses): 1 to 1.5 h; half-life ([1]; plasma, oral, healthy subjects, 20-1000 mg, read-out: median T½ estimates, range across doses): 1.54 to 3.5 h; AUC(0-inf) [2, 20]: 130 ng·h/mL; Cmax [2, 20]: 34.6 ng/mL; Tmax [2, 20]: 1.74 h; half-life [2, 20]: 2.05 h; AUC(0-inf) [2, 21]: 1290 ng·h/mL; half-life [2, 21]: 3.28 h; Cmax [2, 22]: 314 ng/mL; Tmax [2, 22]: 2.75 h; Potency in inhibiting SGLT-2 in vitro [3]: as potent as remogliflozin
2 | Cc1c(Cc2ccc(OC(C)C)cc2)c(O[C@@H]2O[C@H](CO)[C@@H](O)[C@H](O)[C@H]2O)nn1C(C)C [Remogliflozin, remogliflozin] | 1.38 h | 1.47 h | 1.59 h | 2.57 h | 2.86 h | 133 ng·h/mL | 61 ng/mL | 0.89 h | 324 ng·h/mL | 158 ng/mL | 1.14 h | 991 ng·h/mL | 515 ng/mL | 0.66 h | 3720 ng·h/mL | 1700 ng/mL | 1.5 h | 10300 ng·h/mL | 4820 ng/mL | 1.25 h | AUC ratio (remogliflozin/remogliflozin etabonate) Geometric mean ([1]; healthy subjects, 20 mg oral dose, n = 5): 84^d; AUC ratio (remogliflozin/remogliflozin etabonate) Geometric mean ([1]; healthy subjects, 50 mg oral dose): 81; AUC ratio (remogliflozin/remogliflozin etabonate) Geometric mean ([1]; healthy subjects, 150 mg oral dose): 102; AUC ratio (remogliflozin/remogliflozin etabonate) Geometric mean ([1]; healthy subjects, 500 mg oral dose): 105; AUC ratio (remogliflozin/remogliflozin etabonate) Geometric mean ([1]; healthy subjects, 1000 mg oral dose): 95; Time to appearance in plasma at relatively high concentrations ([1]; healthy subjects, after remogliflozin etabonate dosing): ≤ 10 min; half-life ([1]; plasma, oral, both populations, independent of dose (abstract), read-out: mean plasma T½): 2 h; half-life ([1]; plasma, oral, healthy subjects, 20-1000 mg, read-out: mean T½ estimates, range across doses): 1.38 to 2.86 h; Tmax ([1]; plasma, both populations, after oral RE (abstract), read-out: time to maximum plasma concentration (Tmax)): ~1 h; AUC(0–∞) ratio (Remogliflozin/remogliflozin etabonate) Geometric mean (CV%) ([2]; 50 mg oral dose): 59 (62); AUC(0–∞) ratio (Remogliflozin/remogliflozin etabonate) Geometric mean (CV%) ([2]; 500 mg oral dose): 54 (38); AUC(0-inf) [2, 20]: 523 ng·h/mL; Cmax [2, 20]: 195 ng/mL; Tmax [2, 20]: 1.46 h; half-life [2, 20]: 1.59 h; AUC(0-inf) [2, 21]: 5180 ng·h/mL; half-life [2, 21]: 3.93 h; Cmax [2, 22]: 1890 ng/mL; Tmax [2, 22]: 2.5 h; Selectivity for SGLT2 over SGLT1 [4]: high level of selectivity
